Test results reported in US4056631A, “Method of combatting ticks” (Showa Denko K.K., priority 1973, dated 1977).

Key:
Boophilus microplus [1] = assay: Test 2: killing of tick larvae of Boophilus microplus (immersion in emulsified aqueous solution); format: in vivo; conditions: Rhipicephalus microplus, immersed 2 to 5 minutes, 25° C. for 24 hours, read-out: Combatting Effect of Larvae of Boophilus microplus (mortality of unfed larvae)
Procedure: (§1) Groups of 50 to 100 larvae of Boophilus microplus and Haemaphysalis longicornis of about two weeks old placed in paper packets were immeresed for 2 to 5 minutes in an emulsified aqueous solution of the test compounds of a concentration of 100 ppm, and the larvae were incubated at 25° C. for 24 hours according to the procedure described by Stone and Haydock (1962), and the rate of the larvae killed were determined. Each figure indicates mortality of unfed larvae after treatment with the test compounds.

[2] = test system: Haemaphysalis longicornis; assay: Test 2: killing of tick larvae of Haemaphysalis longicornis (immersion in emulsified aqueous solution); format: in vivo; conditions: immersed 2 to 5 minutes, 25° C. for 24 hours, read-out: Combatting Effect of Larvae of Haemaphysalis longicornis (mortality of unfed larvae)
Procedure: as §1

Boophilus microplus [3] = assay: Test 3: inhibiting oviposition by Boophilus microplus (spray of diluted Recipe 1 emulsion); format: in vivo; conditions: relative to water-sprayed control, two weeks, 30° C.
Procedure: (§2) An emulsion was prepared in accordance with the foregoing Recipe 1, using as its active ingredient the compound No. 12. Several classes of spraying liquids having the concentrations indicated in Table 3 were prepared by diluting this emulsion with water. Ten female Boophilus microplus which had sucked blood fully were placed on a filter paper, and the liquid described above was sprayed onto the ticks with a glass sprayer in an amount such that the liquid would flow down the backs of the ticks. The ticks were then immediately transferred to a wet filter paper disposed in a Petri dish, and when the liquid on the backs of the ticks became somewhat dried, the dish was covered. The Petri dish was then held at a constant temperature of 30° C. for two weeks, after which the total amount of eggs laid was counted. During the time the Petri dish was held at a constant temperature, the inside of the Petri dish was maintained in a state of high humidity by dropping a small amount of water onto the filter paper daily. The effectiveness was judged by the rate of eggs laid by the several treated groups relative to the total eggs laid in the case of the ticks of the control group, which had been sprayed with only water. On the other hand, the effectiveness in killing the female adults was judged by observation of the presence or absence of deaths. The case where the presence of deaths was observed is indicated with the symbol (+), and the case where there were no deaths is indicated with the symbol (-).

Boophilus microplus [4] = assay: Test 3: killing adults of Boophilus microplus (spray of diluted Recipe 1 emulsion); format: in vivo; parameters: key: (+): presence of deaths was observed; (-): there were no deaths; conditions: female adults
Procedure: as §2

[5] = Test 4: acute oral toxicity in mice; parameters: species or system mice (male albino, strain ddY); conditions: mouse, in vivo, single dose, observed for a week
Procedure: Acute oral toxicity was determined by using male albino mice strain ddY, 5 weeks old. The test compounds were administered orally once and the LD50 values were calculated after observing for a week.

Boophilus microplus [6] = assay: Test 1: inhibition of oviposition by Boophilus microplus (acetone solution dropped on back of blood-fed females); conditions: Rhipicephalus microplus, topical, 336 h, read-out: Inhibition Ratio of Oviposition by Boophilus microplus
Source text: (§3) One each of the adults of female Boophilus microplus or Haemaphysalis longicornis which had been allowed to suck blood fully was placed in a flat bottom test tube having a diameter of 10 millimeters and a depth of 35 millimeters. After rendering the chemicals to be tested into acetone solutions, the solutions were dropped to the back of the ticks in an amount corresponding to 110 gamma per one gram of body weight, using a micro syringe after which the acetone was evaporated. The test tube was then transferred to a desiccator containing a small portion of water where it was left standing at a constant temperature of 30° C., and the ticks were allowed to oviposit. Two weeks later, the amount of eggs laid per 1 gram of body weight was counted. Using this value and the amount of eggs laid in the case of the control group not treated with the chemicals, the rate of inhibition of oviposition was obtained as follows: [formula] where A is the number of eggs laid per gram of body weight of ticks of the group not treated with chemicals,
(§4) B is the number of eggs laid per gram of body weight of ticks of the group treated with chemicals.
(§5) The foregoing ratio was used to indicate the effectiveness of the chemicals tested.

[7] = test system: Haemaphysalis longicornis; assay: Test 1: inhibition of oviposition by Haemaphysalis longicornis (acetone solution dropped on back of blood-fed females); conditions: topical, 336 h, read-out: Inhibition Ratio of Oviposition by Haemaphysalis longicornis
Source text: as §3, §4, §5

mice = conditions: heretofore known tickicide; cited from earlier work
[8] = concentration of compound 0.003%
[9] = concentration of compound 0.01%
[10] = concentration of compound 0.03%

## CCCCCCCCCCCCN=C=NC(C)(C)c1ccccc1 [Compound 12, N-n-dodecyl-N'-(2-phenyl-2-propyl)carbodiimide]
Boophilus microplus [1]
  mortality at 100 ppm: 86.5%
[2]
  mortality at 100 ppm: 82.2%
Boophilus microplus [3]; [8]
  Rate of Eggs Laid: 94.8%
Boophilus microplus [3]; [9]
  Rate of Eggs Laid: 85.5%
Boophilus microplus [3]; [10]
  Rate of Eggs Laid: 62.6%
Boophilus microplus [3]; concentration of compound 0.1%
  Rate of Eggs Laid: 0%
Boophilus microplus [3]; concentration of compound 0.3%
  Rate of Eggs Laid: 0%
Boophilus microplus [3]; concentration of compound 1%
  Rate of Eggs Laid: 0%
Boophilus microplus [4]; [8]
  Effectiveness in Killing Adults: (-)
Boophilus microplus [4]; [9]
  Effectiveness in Killing Adults: (-)
Boophilus microplus [4]; [10]
  Effectiveness in Killing Adults: (-)
Boophilus microplus [4]; concentration of compound 0.1%
  Effectiveness in Killing Adults: (+)
Boophilus microplus [4]; concentration of compound 0.3%
  Effectiveness in Killing Adults: (+)
Boophilus microplus [4]; concentration of compound 1%
  Effectiveness in Killing Adults: (+)
[5]
  LD50 at 168 h: > 16000 mg/kg
Boophilus microplus [6]
  pest or weed control at 110 µg/g: 100%
[7]
  pest or weed control at 110 µg/g: 100%

## CCOP(=S)(OCC)Oc1nc(Cl)c(Cl)cc1Cl [Control Chemical III, O,O-diethyl O-(3,5,6-trichloro-2-pyridyl)phosphorothioate, reference compound]
[5]
  LD50 at 168 h: 70 mg/kg
mice
  LD50 for mice: 70 mg/kg
